{"source": "patent US20020151707A1", "about": "“Immune mediators and related methods” (Corixa Corp., priority 1995, published 2002)", "key": {"[1]": {"system": "C-terminal amidated GAD65+I-A^g7 restricted T cell hybridomas (MBD.1, MBD2.3, MBD2.7, MBD2.8, MBD2.11, MBD2.14)", "test": "Activation of GAD65 restricted T-cell hybridomas, read as CTLL proliferation in response to IL-2", "assay_type": "cell-based, NOD mouse", "conditions": "hybridoma MBD.1; peptide + I-A^g7 of NOD APCs; CTLL cells", "protocol": "To determine specificity of the T-cell hybridomas, antigen-presenting cells (APCs) were prepared by grinding NOD mice spleens and lysing as in Example 11. The splenocytes were brought to 3 ml in Bruff's medium containing 10% FBS. Mitomycin C (Sigma) was added at 0.3 ml per 3 ml of cell suspension to prevent DNA synthesis. The APCs were incubated for 30 minutes in a 37° C. water bath, and then washed 3 times in Bruff's medium containing 10% FBS, each time centrifuging for 5 minutes at 1200 RPM. After the final wash, the APCs were brought to a concentration of 2×10^6 cells/ml in Bruff's medium containing 10% FBS. C-terminal amidated GAD65 peptide was titered from 333 μg/ml to 0.15 μg/ml in round bottom 96 well plates. Fifty microliters (1×10^5) APCs were added to the peptides. Hybridomas were counted and brought to a concentration of 1×10^6 cells/ml in Bruff's medium containing 10% FBS, and 100 μl (1×10^5) cells was added to each well. Hybridomas were also tested against the following: I-A^g7 MHC +a peptide other than C-terminal amidated GAD65; an MHC other than I-A^g7+C-terminal amidated GAD65; the I-A^g7 MHC alone; and C-terminal amidated GAD65 alone. The plate was incubated at 37° C., 5% CO2, overnight. […] Incorporation of ^3H-thymidine into the DNA was measured on a Wallac 1205 Betaplate Beta Counter (Turku, Finland). […]"}, "[2]": {"system": "NOD recipient mice", "test": "Adoptive transfer of IDDM with splenocytes from diabetic NOD mice", "assay_type": "in vivo, NOD mouse", "from_the_text": "IDDM can also be adoptively transferred by transplanting splenic cells from a diabetic-donor to a non-diabetic recipient (Baron et al., J. Clin. Invest. 93:1700-08, 1994). This method involves treating in vivo activated mature T cells. Briefly, NOD/CaJ mice are irradiated (730 rad) and randomly divided into treatment groups. Splenocytes, preferably about 1.5×10^7, from newly diabetic mice are isolated and injected intravenously into non-diabetic NOD 7-8 week old recipient mice, followed six hours later with intravenous injections of saline, peptide or MHC:peptide complex at 10, 5, or 1 μg/mouse. The injections are repeated on days 4, 8 and 12 following the original injection. Mice are tested for the onset of diabetes by urine analysis, and at the time of sacrifice, blood glucose. Treatment of these mice with an MHC:peptide complex is expected to lengthen the time period before the onset of diabetes and/or to prevent or ameliorate the disease. […]\nIDDM can be adoptively transferred by injecting splenic cells from a diabetic donor into a non-diabetic recipient. […] Those animals showing positive urine values of at least 250 mg/dl glucose were further analyzed for blood glucose levels using tail clippings, and if the blood glucose was also at or above 250 mg/dl, the mice were classified as overtly diabetic. […]"}, "[3]": {"system": "T cell lines derived from one HLA-DRB1*0404 patient (ThHo)", "test": "Reactivity of GAD-reactive human T cell lines to synthetic GAD peptides (3H-thymidine proliferation)", "assay_type": "cell-based", "conditions": "for number of T cell lines stimulated: of 4 T cell lines", "protocol": "T-cell clones were rested (not given IL-2 for 2 days, at least 7 days post-stimulation with antigen), washed, counted and resuspended in 15% PHS medium. They were plated at 25,000 cells/well in […] 15% PHS medium. Autologous or HLA-class II-matched PBMNCs are loaded with GAD by incubating with GAD (about […]) for at least 5 hours. The cells are washed and irradiated with 3000 rads. These cells are washed and resuspended in 15% PHS medium, and added to the T-cells at a concentration of 1×10^6 cells/well in […] 15% PHS medium. The cells were incubated for 48 hours, then pulsed with […] 3H-thymidine and harvested. A positive response is considered to be a stimulation index >3 (stimulation index SI=average cpm of sample stimulated with antigen/average cpm of sample of cells stimulated with no antigen or control antigen). Some controls include T-cells alone, stimulators alone, a purified negative antigen, GAD purified from baculovirus, PHA, and IL-2.\nOther methods, well known in the art, for testing clones and lines include dose response to antigen; response to these antigens or negative antigen controls; determination of HLA-class II restriction by adding blocking anti-HLA class II antibody to plates; and use of peptides to load stimulators to determine peptide specificity, which can be done as described above except the peptides are tested by dose titration and left in the assay. A dose response in combination with peptide specificity tests can also be done.\nFour individual T cell lines derived from one HLA-DRB1*0404 patient (ThHo) were used to map the 74 synthetic GAD peptides, overlapping sets of 20 mers, that span the entire length of GAD 65 (SEQ. ID. NO. 59). Antigen presenting cells, BLS-DRB1*0404 and/or BLS-DRB1*0401 (Kovats et al., J. Exp. Med. 179:2017-22, 1994), were loaded with peptide by incubating with peptide (about […]) for at least 5 hours. Reactivity of T-cells was determined as above. One peptide, hGAD 33 ([…] SEQ. ID. NO. 40) stimulated 3 or the 4 lines with BLS-B1*0404. […]"}, "[4]": {"system": "NOD MHC Class II I-A^g7", "conditions": "known from the literature (Reich et al.); cited from earlier work"}}}
{"substance": "SRLSKVAPVIKARMMEYGTT-NH2 [C-terminal amidated GAD65 peptide]", "values": [{"measurement": "proliferative response, incorporated 3H-thymidine", "setting": "[1]", "value": "> 5000", "unit": "cpm"}, {"measurement": "mice that had developed disease by day 30", "setting": "[2]; 10 μg/mouse peptide alone", "value": "over 75%"}, {"measurement": "overall effect on onset of diabetes in the adoptive transfer model", "setting": "[2]; mouse, in vivo", "value": "accelerated the onset of diabetes"}]}
{"substance": "PGGAISNMYAM [ID; NO; 39]", "values": [{"measurement": "number of T cell lines stimulated", "setting": "[3]; presented by either BLS-B1*0404 or BLS-DRB1*0401", "value": "one"}]}
{"substance": "PGGAISNMYAMMIARFKMFP (PGGAISNMYAMMIARFKNFP) [hGAD 33, ID; NO; 40]", "values": [{"measurement": "number of T cell lines stimulated", "setting": "[3]; peptide presented by BLS-B1*0404", "value": 3}]}
{"substance": "SRLSKVAPVIKARMMEYGTT [same GAD65 peptide (aa 524-543) with a carboxylic group at the C-terminus]", "values": [{"measurement": "proliferative response (lesser response)", "setting": "[1]", "value": "> 2000", "unit": "CMP"}]}
{"substance": "MSA: Mouse serum albumin (MSA), a known allele-specific peptide (SEQ. ID. NO. 61), positive control", "values": [{"measurement": "affinity for I-A^g7 (control peptides)", "setting": "[4]", "value": "high affinity"}]}
{"substance": "PGGAISNMYA [ID; NO; 41]", "values": [{"measurement": "stimulation of T-cell line, HLA restriction", "setting": "[3]; APC BLS-B1*0404 versus BLS-DRB1*0401", "value": "stimulated the same T-cell line only when presented by BLS-B1*0404"}]}
